From ChEMBL document CHEMBL2029331, “Red fluorescent scaffold for highly sensitive protease activity probes” (Bioorg Med Chem Lett, 2012)
The source made the active and inactive calls. The calls are words filed in the database; no cut-off is given here.

What was measured:
[1] = target: T1, Caspase-3 (Homo sapiens) (UniProt P42574); assay: Activity of caspase3 assessed as Kcat/Km ratio after 10 hrs by spectrophotometry relative to Ac-DEVD-AMC
T1 sequence (whole entry): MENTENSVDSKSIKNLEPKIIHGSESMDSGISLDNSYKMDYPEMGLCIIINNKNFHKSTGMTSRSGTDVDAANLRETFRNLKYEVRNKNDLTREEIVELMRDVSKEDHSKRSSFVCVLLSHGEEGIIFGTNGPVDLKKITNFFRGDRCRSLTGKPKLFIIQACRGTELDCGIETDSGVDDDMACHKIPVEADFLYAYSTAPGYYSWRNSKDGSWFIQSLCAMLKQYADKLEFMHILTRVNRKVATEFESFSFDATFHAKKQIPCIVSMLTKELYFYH

[2] = target: Leucyl-cystinyl aminopeptidase (Homo sapiens) (UniProt Q9UIQ6); assay: Activity of leucine aminopeptidase after 2.5 hrs by spectrophotometry
Chain of Leucyl-cystinyl aminopeptidase (Homo sapiens) (Q9UIQ6 whole entry): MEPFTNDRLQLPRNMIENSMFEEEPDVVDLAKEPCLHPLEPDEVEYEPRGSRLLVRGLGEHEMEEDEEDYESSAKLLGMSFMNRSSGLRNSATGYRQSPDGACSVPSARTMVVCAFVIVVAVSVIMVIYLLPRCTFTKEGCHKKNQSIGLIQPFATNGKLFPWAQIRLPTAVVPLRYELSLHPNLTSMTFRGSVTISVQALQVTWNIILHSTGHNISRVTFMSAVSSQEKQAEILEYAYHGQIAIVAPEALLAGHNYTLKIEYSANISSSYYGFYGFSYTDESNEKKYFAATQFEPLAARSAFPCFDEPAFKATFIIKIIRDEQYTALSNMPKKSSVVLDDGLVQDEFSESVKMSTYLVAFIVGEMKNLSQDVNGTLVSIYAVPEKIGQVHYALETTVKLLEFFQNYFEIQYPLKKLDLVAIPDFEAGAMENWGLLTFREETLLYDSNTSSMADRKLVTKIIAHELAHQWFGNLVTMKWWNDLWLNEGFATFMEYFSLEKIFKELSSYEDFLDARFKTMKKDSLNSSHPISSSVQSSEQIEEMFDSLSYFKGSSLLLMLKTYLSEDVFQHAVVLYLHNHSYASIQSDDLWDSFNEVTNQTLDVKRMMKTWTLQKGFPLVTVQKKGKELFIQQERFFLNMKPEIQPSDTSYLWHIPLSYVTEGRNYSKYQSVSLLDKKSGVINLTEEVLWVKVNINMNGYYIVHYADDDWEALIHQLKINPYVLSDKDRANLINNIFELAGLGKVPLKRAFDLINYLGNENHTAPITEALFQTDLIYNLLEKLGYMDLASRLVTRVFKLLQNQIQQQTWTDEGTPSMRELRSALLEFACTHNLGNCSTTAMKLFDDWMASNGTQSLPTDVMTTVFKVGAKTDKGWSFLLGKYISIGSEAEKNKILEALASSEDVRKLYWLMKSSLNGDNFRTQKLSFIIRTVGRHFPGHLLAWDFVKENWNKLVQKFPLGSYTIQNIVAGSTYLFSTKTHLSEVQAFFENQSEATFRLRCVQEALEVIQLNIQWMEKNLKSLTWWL

[3] = target: T1, Caspase-3 (Homo sapiens); assay: Activity of caspase3 assessed as SiR600 release by measuring increase in fluorescence intensity at 2 uM after 10 hrs by FRET assay relative to control

Compound: Cc1ccccc1C1=C2C=CC(=N)C=C2[Si](C)(C)c2cc(NC(=O)[C@H](CC(=O)O)NC(=O)[C@@H](NC(=O)[C@H](CCC(=O)O)NC(=O)[C@H](CC(=O)O)NC(=O)OCc3ccccc3)C(C)C)ccc21
- fold change (FC) [1]: 40
- Activity [2]: Active
- fold change (FC) [3]: 432
